# Patent US4558122A, “Stable s-adenosylmethionine derivatives, the process for their preparation, and therapeutic compositions which contain them as active principle” (Bioresearch S.P.A., priority 1981, dated 1985)
# Like-named read-outs stand apart in the source and are kept apart here.
# Legend:
# [1] = absorption "in situ" (intestinal sacs); format: in vivo, rat; settings: rat, in situ intestinal sacs, 2 mg in 1 ml physiological solution, rats, H2 SO4 salts, m 0 or 1, n 3, read-out: PRODUCT ABSORPTION in sacs
# Method: In the 1st test, known as "in situ" (intestinal sacs), 2 mg of each product to be tested in 1 ml of physiological solution were placed in intestinal sacs provided in rats under ether anesthesia. The rats were killed after 2 hours, and the residual content of the sac (wall+content) was analysed. In the 2nd test, portions of intestine turned inside out were used, incubated at 37° C. in accordance with Krebs Ringer against an external product concentration of 10^-4 M. The products were all salified with H2 SO4 to give salts in which m was 0 or 1 and n was 3.
# [2] = system: portions of intestine turned inside out; experiment: absorption by portions of intestine turned inside out; format: in vitro ADME
# Method: In the 2nd test, portions of intestine turned inside out were used, incubated at 37° C. in accordance with Krebs Ringer against an external product concentration of 10^-4 M. The products were all salified with H2 SO4 to give salts in which m was 0 or 1 and n was 3.
# [3] = stability in the dry state at 45° C.; format: physicochemical; settings: 45° C.
# [4] = physchem; format: physicochemical; settings: water
# [5] = 37° C., Krebs Ringer, external concentration 10^-4 M, H2 SO4 salts, m 0 or 1, n 3
Compound,Fa at 2 h [1] [%],"PRODUCT ABSORPTION intestine inside out [2, 5] [nmoles/h/mg tissue]",degraded at 0.25 h ([4]; pH 2) [%],degraded at 0.5 h ([4]; pH 2) [%],degraded at 1 h ([4]; pH 2) [%],degraded at 4 h ([4]; pH 2) [%],degraded at 0.25 h ([4]; pH 3) [%],degraded at 0.5 h ([4]; pH 3) [%],degraded at 1 h ([4]; pH 3) [%],degraded at 4 h ([4]; pH 3) [%],degraded at 0.25 h ([4]; pH 4) [%],degraded at 0.5 h ([4]; pH 4) [%],degraded at 1 h ([4]; pH 4) [%],degraded at 4 h ([4]; pH 4) [%],further results
"Cc1ccc(S(=O)(=O)N[C@@H](CC[S+](C)C[C@H]2O[C@@H](n3cnc4c(N)ncnc43)[C@H](O)[C@@H]2O)C(=O)[O-])cc1 (stereo partly shown) [H p.tol. sulphon. H, SAM p-toluenesulphonyl]",13,0.021,,,,,,,,,,,,,
"CC(=O)N[C@@H](CC[S+](C)C[C@H]1O[C@@H](n2cnc3c(N)ncnc32)[C@H](OC(C)=O)[C@@H]1OC(C)=O)C(=O)[O-] (stereo partly shown) [SAM triacetyl. 2 H2 SO4, SAM triacetyl]",,,,,,,,,,,,,,,"degraded at 1440 h ([3]; 60 days, read-out: Degradation at 45° C. after 60 days): 1%; degraded at 2880 h ([3]; 120 days, read-out: Degradation at 45° C. after 120 days): 1.9%; degraded at 4320 h ([3]; 180 days, read-out: Degradation at 45° C. after 180 days): 4.1%; degraded at 5760 h ([3]; 240 days, read-out: Degradation at 45° C. after 240 days): 5.9%; degraded at 8640 h ([3]; 360 days, read-out: Degradation at 45° C. after 360 days): 8%"
"CCOC(=O)[C@@H](N)CC[S+](C)C[C@H]1O[C@@H](n2cnc3c(N)ncnc32)[C@H](O)[C@@H]1O (stereo partly shown) [C2 H5, SAM ethyl ester]",59,0.061,2,4,8,35,3,6,13,55,5,9,19,80,
"CC(=O)N[C@@H](CC[S+](C)C[C@H]1O[C@@H](n2cnc3c(N)ncnc32)[C@H](OC(C)=O)[C@@H]1OC(C)=O)C(=O)[O-] (stereo partly shown) [H COCH3 COCH3, SAM triacetyl]",65,0.047,,,,,,,,,,,,,
"C[S+](CC[C@H](NC(=O)CCC(=O)O)C(=O)[O-])C[C@H]1O[C@@H](n2cnc3c(N)ncnc32)[C@H](O)[C@@H]1O (stereo partly shown) [H Succinyl H, SAM succinyl]",25,0.016,,,,,,,,,,,,,
"CC(=O)N[C@@H](CC[S+](C)C[C@H]1O[C@@H](n2cnc3c(N)ncnc32)[C@H](O)[C@@H]1O)C(=O)[O-] (stereo partly shown) [H COCH3 H, SAM monoacetyl]",10,0.046,,,,,,,,,,,,,
"COC(=O)[C@@H](N)CC[S+](C)C[C@H]1O[C@@H](n2cnc3c(N)ncnc32)[C@H](O)[C@@H]1O (stereo partly shown) [CH3, SAM methyl ester]",55,0.078,5,10,21,75,6,13,25,100,8,18,40,100,
"C[S+](CC[C@H](N)C(=O)[O-])C[C@H]1O[C@@H](n2cnc3c(N)ncnc32)[C@H](O)[C@@H]1O (stereo partly shown) [H, S-adenosylmethionine]",,,80,100,100,100,90,100,100,100,100,100,100,100,PRODUCT ABSORPTION intestine inside out [2]: 0.009 nmoles/h/mg tissue
"CCCCCOC(=O)[C@@H](N)CC[S+](C)C[C@H]1O[C@@H](n2cnc3c(N)ncnc32)[C@H](O)[C@@H]1O (stereo partly shown) [C5 H11 H H, SAM n-pentyl ester]",68,0.025,,,,,,,,,,,,,
"CC(=O)O[C@@H]1[C@H](OC(C)=O)[C@@H](C[S+](C)CC[C@H](NC(=O)CCC(=O)O)C(=O)[O-])O[C@H]1n1cnc2c(N)ncnc21 (stereo partly shown) [H Succinyl COCH3, SAM succinyl-diacetyl]",91,0.035,,,,,,,,,,,,,
